Results on six molecules are retold here after patent publication US7863315B2, “2-indolinone derivatives as selective histone deacetylase inhibitors” (Shenzhen Chipscreen Biosciences, Ltd., priority 2008, dated 2011).

A word on the fold induction: it is the signal under treatment as a multiple of the control signal. A lower fold induction goes with a weak induction. The term GI50 denotes the concentration at which growth is held to half of that of the control. Higher therefore signals lower sensitivity of the cells.

One assay concerns lysine acetylation. Kind of assay: ELISA assay of acetylation of lysine in HeLa cells. The note with it: Homo sapiens, M-HeLa, 24 hours. The class given is cell-based. From the text: Measurement of acetylation activity in cells on substrates:
ELISA Assay of Acetylation of Lysine
This assay is used to measure in vivo inhibition of HDAC6 in a cytoblot assay.
Materials and Reagent: • 1. 24-well tissue culture • 2. DMEM Medium containing 10% FBS • 3. 96-well white plate • 4. HeLa cell line • 5. M-PER Mammalian Protein Extraction Reagent (Pierce) • 6. Bradford assay reagent • 7. Acetylated-lysine polyclonal Antibody (Cell Signaling) • 8. HRP-labeled anti-rabbit IgG (Upstate) • 9. Coating Buffer: 15 mM Na2CO3, 35 mM NaHCO3 (pH 9.6) • 10. 10×PBS: 0.58M Na2HPO4, 0.17M NaH2PO4, 0.68M NaCl (pH 7.4) • 11. Wash Buffer:1×PBS containing 0.05% Tween-20 (PBST) • 12. Blocking Buffer:10 mg/ml bocine serum albumin (BSA) in PBS • 13. Antibody Dilution Buffer: 5 mg/ml BSA in PBST • 14. Enhanced chemiluminescence (ECL) (Amersham)
Procedure for performing the assay in 96-well plate: • 1. HeLa cells were seeded at a density of 60000 cells/500 μl/well in 24-well plate and incubated at 37° C. for 24 hours. • 2. Compounds were added and incubated for 24 hours at 37° C. • 3. Culture medium was removed, then washes the cells twice with ice-cold PBS. • 4. Add 100 μl/well of Protein Extraction Reagent and gently shake the mixture for 5 minutes. • 5. Collect the lysate to a 96-well plate respectively. Determine the concentration of protein by Bradford assay. • 6. Coat the wells of a 96-well white plate with 100 μl/well of 2.5 μg whole cell protein in Coating Buffer by incubating overnight at 4° C. • 7. Discard the uncoated proteins and wash the coated wells three times with 200 μl/well of PBST. • 8. Block coated wells by incubating the plate with 200 μl/well of Blocking Buffer for 1 hour at 37° C. • 9. Wells were aspirated and washed three times with 200 μl/well of PBST. • 10. After aspirating, 50 μl/well of Antibody Dilution Buffer containing acetylated-lysine polyclonal antibody (1:1000) were added to each well and incubated for 2 hour at 37° C. • 11. Wells were aspirated and washed three times with 200 μl/well of PBST. • 12. 50 μl/well of Antibody Dilution Buffer containing HRP-labeled anti-rabbit IgG (1:2000) were added to each well and incubated for 2 hour at 37° C. • 13. Wells were aspirated and washed three times with 200 μl/well of PBST. • 14. Wells were washed three times with 200 μl/well of purified water. • 15. Add 50 μl/well of ECL mixture, then read the plates on the plate reader.

For assay [1], the system named is Hut-78 human T lymphoma cell line. Kind of assay: Anti-cell proliferation (MTS), Hut-78. The note with it: HuT78, 72 hours. The class given is cell-based. As for the experimental part: (§1) Measurement of in vivo cell proliferation:
(§2) Tumor cells were trypsinized and plated into 96-well plates at 3,000 per well and incubated in complete medium with 10% FBS for 24 hours. Compounds were added over a final concentration range of 100 μmol/L to 100 nmol/L in 0.1% DMSO and incubated for 72 hours in complete medium. The effects on proliferation were determined by addition of MTS reagent (Promega) according to the instruction, incubation for 2 hours at 37° C. in CO2 incubator, and record the absorbance at 490 nm using an ELISA plate reader.

Assay [2] relates to total HDAC enzyme (HeLa extract). Kind of assay: In vitro inhibition of total HDAC enzyme activity (HDAC Fluorimetric Assay/Drug Discovery Kit, BIOMOL). The class given is biochemical, human. As to the method:
Measurement of in vitro inhibition of total HDAC enzyme activity:
The in vitro inhibition of total HDAC enzyme was determined by HDAC Fluorimetric Assay/Drug Discovery Kit (BIOMOL) according to manufacture's instruction. • 1. Add Assay buffer, diluted trichostatin A or test inhibitor to appropriate wells of the microtiter plate. Following table lists examples of various assay types and the additions required for each test.
• 2. Add diluted HeLa extract or other HDAC sample to all wells except those that are to be “No Enzyme Controls” (Blank). • 3. Allow diluted Fluor de LyS™ Substrate and the samples in the microtiter plate to equilibrate to assay temperature (25° C.). • 4. Initiate HDAC reactions by adding diluted substrate (25 μl) to each well and mixing thoroughly. • 5. Allow HDAC reactions to proceed for desired length of time and then stop them by addition of Fluor de Lys™ Developer (50 μl). Incubate plate at room temperature (25° C.) for 10-15 min. • 6. Read samples in a microtiter-plate reading fluorimeter capable of excitation at a wavelength in the range 350-380 nm and detection of emitted light in the range 440-460 nm.

For assay [3], the system named is HDAC4/5 (MEF2 reporter gene). Nature of the assay: HDAC subtype reporter gene assay, MEF-binding element (MEF2) luciferase in HeLa cells. The class given is cell-based. The note with it: Homo sapiens, M-HeLa, read-out: % of SAHA Response for HDAC4/5 at 10 μM (MEF2 reporter gene), 24 hours. As to the method: (§3) Measurement of inhibition of HDAC subtypes activity in cells by reporter gene assay: HDAC subtype selectivity inhibition assay of tested compounds was carried out by several reporter gene assays experiments. Briefly, HeLa cells were seeded in 96-well plates the day before transfection to give a confluence of 50-80%. Cells were transfected with one of reporter gene plasmids containing a promoter sequences or response elements upstream of a luciferase gene construct using FuGene6 transfection reagent according to the manufacturer's instructions (Roche). The promoters or response elements including p21-promoter, gdf11-promoter, MEF-binding element (MEF2), Nur77-promoter were fused upstream to the luciferase gene reporter construct. For normalizing the transfection efficiency, a GFP expression plasmid was cotransfected. Cells were allowed to express protein for 24 hours followed by addition of individual compounds or the vehicle (DMSO). 24 hours later, the cells were harvested and the luciferase assays were performed using the luciferase assay kit according to the manufacturer's instructions (Promega). To normalize the data from the luciferase assays, GFP activity from transfected cells was measured in a microtiter-plate reading fluorimeter capable of excitation at a wavelength at 485 nm and detection of emitted light at 527 nm.
Background: Reporter assays use an easily measured gene product as a stand-in for the process of interest.

Assay [4] relates to HDAC7 (Nur77 reporter gene). Nature of the assay: HDAC subtype reporter gene assay, Nur77-promoter luciferase in HeLa cells. The class given is cell-based. The conditions noted are these: Homo sapiens, M-HeLa, read-out: % of SAHA Response for HDAC7 at 10 μM (Nur77 reporter gene), 24 hours. As to the method: as §3
Assay [5] concerns A549 human lung cancer cell line. Kind of assay: Anti-cell proliferation (MTS), A549. The class given is cell-based. The note with it: 72 hours. As to the method:
as §1, §2

Assay [6] deals with HeLa human cervical cancer cell line. Nature of the assay: Anti-cell proliferation (MTS), HeLa. The class given is cell-based. The note with it: 72 hours. As to the method: as §1, §2
The subject of assay [7] is HL60 human leukemia cell line. Nature of the assay: Anti-cell proliferation (MTS), HL60. The note with it: HL-60, 72 hours. The class given is cell-based. As to the method:
as §1, §2

The subject of assay [8] is HDAC class I (p21 reporter gene). Nature of the assay: HDAC subtype reporter gene assay, p21-promoter luciferase in HeLa cells. The class given is cell-based. The conditions noted are these: Homo sapiens, M-HeLa, read-out: % of SAHA Response for HDAC class I at 10 μM (p21 reporter gene), 24 hours. As for the experimental part:
as §3

Bounds are passed on as bounds.

Molecule `Cc1[nH]c(/C=N/N=C2\C(=O)Nc3ccc(F)cc32)c(C)c1C(=O)NCCCCCCCC(=O)NO` [Example 26, 8-(5-(((5-fluoro-2-oxoindolin-3-ylidene)hydrazono)methyl)-2,4-dimethyl-1H-pyrrole-3-carboxamido)-N-hydroxyoctanamide] displayed a fold induction at 10 µM in the assay on lysine acetylation of 2.42. In addition, the concentration for 50% growth inhibition (GI50) in [1] was found to be 14.1 µM; in assay [5], 35.5 µM; in assay [6] it was 25.7 µM; in assay [7] it was 9.33 µM. Moreover, the “% of Inhibition on Total HDAC Enzyme at 30 μM” value (from here on “% of Inhibition”) in assay [2] worked out at 98%. Moreover, the values for the Emax at 10 µM in assay [3], in assay [4] and in assay [8] were 20%, 11% and 53%, respectively.
`Cc1[nH]c(/C=N/N=C2\C(=O)Nc3ccc(F)cc32)c(C)c1C(=O)NCCCCCCCC(=O)Nc1ccc(F)cc1N` [Example 27, 8-(5-(((5-fluoro-2-oxoindolin-3-ylidene)hydrazono)methyl)-2,4-dimethyl-1H-pyrrole-3-carboxamido)-N-(2-amino-4-fluorophenyl)octanamide] showed a fold induction at 10 µM in the assay on lysine acetylation of 2.13. The 50% growth inhibitory concentration (GI50) in assay [1] is 6.92 µM; in assay [5] it was greater than 100 µM; in assay [6] it was greater than 100 µM; in assay [7] it was 5.89 µM. Also, in assay [2], the “% of Inhibition” value was 5%. Moreover, the Emax at 10 µM in [3] stood at 37%; in [4], 6%; in [8], 8%.
On to `Cc1[nH]c(/C=N/N=C2\C(=O)Nc3ccc(F)cc32)c(C)c1C(=O)NCCCCCCCC(=O)Nc1ccccc1N` [Example 28, 8-(5-(((5-fluoro-2-oxoindolin-3-ylidene)hydrazono)methyl)-2,4-dimethyl-1H-pyrrole-3-carboxamido)-N-(2-aminophenyl)octanamide], for which, in the assay on lysine acetylation, the fold induction at 10 µM amounted to 1.7. For the same molecule, the GI50 in assay [1] amounted to 4.27 µM; in [5], 36.3 µM; in assay [6], 28.2 µM; in [7] it was 4.37 µM. Moreover, the “% of Inhibition” value in assay [2] was 18%. The Emax at 10 µM was 32% in assay [3], 16% in [4] and 36% in assay [8].
In the assay on lysine acetylation, `Nc1cc(F)ccc1NC(=O)CCCCCCCNC(=O)c1ccc(/C=N/N=C2\C(=O)Nc3ccc(F)cc32)cc1` [Example 36, 8-(4-(((5-fluoro-2-oxoindolin-3-ylidene)hydrazono)methyl)benzamido)-N-(2-amino-4-fluorophenyl)octanamide] came in with a fold induction at 10 µM of 1.35. The GI50 in [1] worked out at 10.7 µM; in assay [5], 30.2 µM; in [6], 55 µM; in assay [7], 14.8 µM. Further, the “% of Inhibition” value in [2] is reported as −16%. Further, the Emax at 10 µM in assay [3] turned out to be 50%; in assay [4], 7%; in [8], 9%.
On to `O=C(CCCCNC(=O)c1cccc(/C=C2\C(=O)Nc3ccc(F)cc32)c1)NO` [Example 51, 5-(3-((5-fluoro-2-oxoindolin-3-ylidene)methyl)benzamido)-N-hydroxypentanamide], for which the fold induction at 10 µM in the assay with lysine acetylation is 1.31. Moreover, the “% of Inhibition” value in assay [2] is 86%. For the same molecule, the values for the Emax at 10 µM in assay [3], in [4] and in [8] were 33%, 3% and 18%, respectively.
For `Nc1cc(F)ccc1NC(=O)CCCCCCCNC(=O)c1cccc(/C=C2\C(=O)Nc3ccc(F)cc32)c1` [Example 55, 8-(3-((5-fluoro-2-oxoindolin-3-ylidene)methyl)benzamido)-N-(2-amino-4-fluorophenyl)octanamide], in that order: 1.12, 14%, 36%, 9% and 10%.
